Consider three molecules from patent US5231101A, “Benzo[5,6]cyclohepta[1,2-B]pyridine derivatives and antiallergic agents comprising same” (SS Pharmaceutical Co., Ltd., priority 1991, dated 1993).

As usually defined, the LD50 is the dose at which mortality reaches 50%. The low end stands for a more toxic substance, the high end for a less toxic substance. One may read the IC50 as the midpoint of a concentration-inhibition curve.

Data set [1] has as its system histamine-induced dermovascular penetration increase. The data set is described as follows: Effect on histamine-induced dermovascular penetration increase. In kind it is in vivo, guinea pig (5-week old). The note with it: Cavia porcellus, 0.5 h; oral, 60 minutes before intradermal histamine (1 μg); blue spot area at 30 min; guinea pig; read-out: ID50 (the source's name). As for the experimental part: (4) Effect on histamine-induced dermovascular penetration increase In a shaved dorsal skin of a guinea pig (5-week old), 0.1 ml (1 μg) of histamine was intradermally injected. […] Thirty minutes later, the animal was sacrificed under exsanguination and was evaluated by square of the shortest and the longest diameters of the blue spot (histamine-injected site). Each test compound was orally administered 60 minutes before the injection of histamine.

The next data set in a line: Acute toxicity. The note with it: mouse, in vivo; oral, ICR mice. An excerpt: The invention compound (Compound No. 1) was orally administered to ICR mice.
For another data set, the system named is ddy male mice. Briefly: Effects on sleeping time (pentobarbital-induced). In kind it is in vivo, mouse (ddy male). The note with it: 10 mg/kg oral, 1 hour before pentobarbital (50 mg/kg i.p.), n=10, control 46.6 ± 3.8, ** p < 0.01 relative to the control (marked for loratadine only). As for the experimental part: (5) Effects on sleeping time Animals used in groups were ddy male mice, each group consisting of ten mice. After fasted for 24 hours, they were orally administered with a test compound. Upon an elapsed time of 1 hour after the oral administration, pentobarbital (50 mg/kg) was intraperitoneally administered and the sleeping time was measured. Statistical evaluation was performed by one-way analysis of variance, followed by the Turkey test for multiple comparison.

For data set [2], the system named is isolated guinea pig ileum. Briefly: Antihistamine selectivity determined from experiments (1) and (2). In kind it is cell-based. Particulars: determined from results of experiments (1) antihistaminergic and (2) antiacetylcholinergic action. As for the experimental part: (§1) After a Hartley male guinea pig was sacrificed under ether anesthesia and exsanguination, the ileum was immediately isolated and a preparation was prepared. The preparation was suspended in a 20 ml Magnus bath containing 32° C. Tyrode solution (95% O2 -5% CO2 saturation) and was placed under resting tension of 1 g. The isometrical changes of the muscular tension produced were recorded on the polygraph through the force displacement transducer.
(3) Antihistamine selectivity
From the results of the above experiments (1) and (2), the antihistamine selectivity was determined in accordance with the following formula. [formula]

Data set [3] relates to isolated guinea pig ileum. The data set is described as follows: Antiacetylcholinergic action on the isolated guinea pig ileum (acetylcholine-induced contraction). The note with it: Cavia porcellus. Format: cell-based, guinea pig (Hartley male). As to the method:
as §1
(2) Antiacetylcholinergic action on the isolated guinea pig ileum

Data set [4] has as its system isolated guinea pig ileum. The data set is described as follows: Antihistaminergic action on the isolated guinea pig ileum (histamine-induced contraction). Format: cell-based, guinea pig (Hartley male). Particulars: Cavia porcellus. As to the method:
(1) Antihistaminergic action on the isolated guinea pig ileum
as §1

Regarding `CN1CCC(=C2c3ccc(C#N)cc3CCc3cccnc32)CC1` [Compound No. 1, 8-Cyano-11-(1-methyl-4-piperidylidene)-6,11-dihydro-5H-benzo[5,6]-cyclohepta[1,2-b]pyridine], the ED50 in data set [1] amounted to 0.012 mg/kg. In the data set “Acute toxicity”, the LD50 came to 657 mg/kg. In the data set on ddy male mice, the Sleeping time was determined as 62.9 ± 5.8 min. The same molecule yielded an Antihistamic selectivity in data set [2] of 3212. Further, the IC50 stood at 48.5 µM in data set [3] (vs acetylcholine (3×10^-5 M), isolated guinea pig ileum, read-out: IC50) and 0.0151 µM in data set [4] (vs histamine (10^-5 M)-induced contraction, isolated guinea pig ileum, 32° C. Tyrode solution, read-out: IC50).

For the molecule `CCOC(=O)N1CCC(=C2c3ccc(Cl)cc3CCc3cccnc32)CC1` [Loratadine], the ED50 in data set [1] was 0.534 mg/kg. The same molecule had a Sleeping time in the data set with ddy male mice of 75.7 ± 5.8 min. Also, in data set [2], the Antihistamic selectivity turned out to be 190. The values for the IC50 in data set [3] and in data set [4] were 23.4 µM and 0.123 µM, respectively.

As to `CC(C)(C)c1ccc(C(O)CCCN2CCC(C(O)(c3ccccc3)c3ccccc3)CC2)cc1` (stereo not drawn) [Terfenadine], in data set [1], the ED50 was 3.34 mg/kg.
